The values below come from patent US20230256007A1 (priority 2022, published 2023).

The test system of this assay is patient with sequelae of coronavirus pneumonia (omicron variant of coronavirus). To be noted: human, in vivo.

As to `[HH]` [hydrogen gas, hydrogen], the “Daily headache and migraine that occurred several times a day” value was “relieved”; the “Generalized pain, difficulty breathing, feeling of faintness, malaise, fatigue after exertion, sleeping disorder, low-grade fever, bradycardia, blood pressure drop” value is “continues to alleviate symptoms”; the “State of pulmonary fibrosis” value was “improving”; the “Time after which sleeping disorder improved” value is recorded as “about 3 days”.
